Data reported in patent publication US5077059A, “Process for preparing melanogenic inhibitor, and pigmentation-lightening agent containing the same” (Yuaka; Mishimazo, priority 1987, dated 1991).

Key:
Type in all cases: cell-based
[1] = test system: Malme-3M cell (human melanoma origin); assay: Comparison of melanogenic inhibitory activity, Malme-3M cell; settings: Experiment 2, Malme-3M cell; intact melanogenic inhibitor at 1 or 3 units
Description: (§1) According to the method for detecting melanogenic inhibitory activity in a prescribed pigment cell, specimens containing 1 or 3 units of an intact melanogenic inhibitor, obtained by the method in Experiment 1, were used to compare melanogenic inhibitory activity in established melanoma cell lines, i.e., B-16 cell (mouse melanoma origin), RPMI 1846 cell (hamster melanoma origin), and Malme-3M cell (human melanoma origin).
(§2) As control, either a system without melanogenic inhibitor or another system with melanogenic inhibitor which had been treated at […] for 2 hours was tested similarly as above.

[2] = test system: B-16 cell derived from mouse melanoma; assay: Melanogenic inhibitory activity in a prescribed pigment cell (B-16); settings: Experiment 2, B-16 cell; intact melanogenic inhibitor at 1 or 3 units
Experimental: The melanogenic inhibitory activity in a prescribed pigment cell is detected by the method described in Cancer Research, Vol. 42, pp. 1994-2002 (1982).
B-16 cell derived from mouse melanoma is suspended in 10 ml Eagle's minimal essential medium (Grand Island Biological Co., Grand Island, N.Y.), supplemented with 10% fetal calf serum, to give 4×10^4 cells. The suspension is placed into a 25 cm^2 Roux's flask, and cultured at 37° C. with 5% CO2. The cultivation is continued for 5 days while replacing the culture medium with a fresh one supplemented with a melanogenic inhibitor specimen at the first- and third-days. After completion of the culture, the resultant cells are washed with a phosphate buffer (pH 7.2) containing 0.8 w/v % saline to detach them from the inside wall of the Roux's flask by the addition of a solution containing trypsin and EDTA (ethylenediaminetetraacetic acid), collected on a filter paper, and dried. The resultant cells are subjected to densitometry to measure the reflection light at a wave length of 500 nm, followed by determination of the reflection absorbance (degree of darkness).
One unit of melanogenic inhibitory activity is defined as the amount of the melanogenic inhibitor which halves the reflection absorbance of B-16 cells without treatment of melanogenic inhibitor.
as §1

[3] = test system: RPMI 1846 cell (hamster melanoma origin); assay: Comparison of melanogenic inhibitory activity, RPMI 1846 cell; settings: Experiment 2, RPMI 1846 cell; intact melanogenic inhibitor at 1 or 3 units
Description: as §1, §2

Measured: melanogenic inhibitory activity, comparison

N[C@@H](CCC(=O)N[C@@H](CS)C(=O)NCC(=O)O)C(=O)O [glutathione]
no melanogenic inhibition: [1] | [2] | [3]

O=C1O[C@H]([C@@H](O)CO)C(O)=C1O [vitamin C]
no melanogenic inhibition: [1] | [2] | [3]

N[C@@H](CS)C(=O)O [cysteine]
no melanogenic inhibition: [1] | [2] | [3]
